Assays:
PAMPA‐BBB assay = type: in vitro ADME; conditions: for predictive penetration in the CNS: PAMPA‐BBB classification; for Papp: pig, PAMPA‐BBB, PBS:EtOH (70 : 30), read-out: Permeability (Pe) experimental value
Protocol: To evaluate the brain penetration of the different compounds, a parallel artificial membrane permeation assay for BBB was used, following the method described by Di et al..[33] The in vitro Pe of fourteen commercial drugs through lipid extract of porcine brain membrane together with the test compounds were determined. Commercial drugs and assayed compounds were tested using a mixture of PBS:EtOH (70 : 30).

EHMT1 (GLP) = biological target: T1, EHMT1 (GLP) (Homo sapiens, UniProt Q9H9B1); assay: EHMT1 (GLP) chemiluminescent assay; type: biochemical; conditions: 0.01 μM to 10 μM
T1 construct: purchased
T1 sequence (Q9H9B1 1-1298): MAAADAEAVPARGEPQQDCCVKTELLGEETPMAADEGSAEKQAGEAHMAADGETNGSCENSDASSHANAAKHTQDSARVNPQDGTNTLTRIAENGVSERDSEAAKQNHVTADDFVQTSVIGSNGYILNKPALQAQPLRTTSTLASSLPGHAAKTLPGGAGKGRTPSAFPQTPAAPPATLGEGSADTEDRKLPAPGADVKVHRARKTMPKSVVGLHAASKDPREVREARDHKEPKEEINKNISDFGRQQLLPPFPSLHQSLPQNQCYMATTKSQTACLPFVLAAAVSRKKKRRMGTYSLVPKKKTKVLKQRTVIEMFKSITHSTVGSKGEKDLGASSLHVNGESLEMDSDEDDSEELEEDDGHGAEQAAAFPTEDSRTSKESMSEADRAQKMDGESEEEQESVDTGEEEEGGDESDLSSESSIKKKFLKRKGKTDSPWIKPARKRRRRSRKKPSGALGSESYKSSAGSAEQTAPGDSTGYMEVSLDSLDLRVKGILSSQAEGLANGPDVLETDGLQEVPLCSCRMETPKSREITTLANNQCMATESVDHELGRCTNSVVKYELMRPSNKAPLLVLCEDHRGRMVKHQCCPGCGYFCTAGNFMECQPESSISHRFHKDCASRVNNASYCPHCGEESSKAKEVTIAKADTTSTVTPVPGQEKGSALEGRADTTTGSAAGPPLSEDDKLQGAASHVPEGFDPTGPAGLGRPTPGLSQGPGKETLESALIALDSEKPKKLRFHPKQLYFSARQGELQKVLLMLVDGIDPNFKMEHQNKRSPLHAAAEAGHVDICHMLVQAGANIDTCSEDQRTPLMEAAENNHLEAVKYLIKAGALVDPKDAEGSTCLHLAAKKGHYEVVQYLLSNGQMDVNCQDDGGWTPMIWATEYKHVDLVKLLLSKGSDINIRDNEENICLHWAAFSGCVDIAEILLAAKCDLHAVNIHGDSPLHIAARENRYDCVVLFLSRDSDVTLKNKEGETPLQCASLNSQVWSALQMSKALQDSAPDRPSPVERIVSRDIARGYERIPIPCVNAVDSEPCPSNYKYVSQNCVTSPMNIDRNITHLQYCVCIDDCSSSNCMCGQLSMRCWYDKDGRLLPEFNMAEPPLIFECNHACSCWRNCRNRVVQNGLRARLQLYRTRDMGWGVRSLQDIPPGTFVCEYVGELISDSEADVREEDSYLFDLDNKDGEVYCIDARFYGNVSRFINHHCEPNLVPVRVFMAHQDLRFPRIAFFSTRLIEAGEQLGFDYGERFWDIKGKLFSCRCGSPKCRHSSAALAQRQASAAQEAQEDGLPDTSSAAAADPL
Protocol: Last, but not least, further characterization of the best candidates was performed assessing their selectivity. Thus, we tested them against EHMT1 (G9a‐like protein, GLP). […] However, they presented a very low percentage, and furthermore this trend was not observed at high doses.
The assay was carried out using EHMT1 (GLP) Chemiluminescent Assay kit. Compounds were added on a 96‐well plate precoated with histone substrate supplied by kit. 30 μL of master mixture SAM were added and the reaction was initiated adding 20 μL of diluted EHMT1 (GLP) enzyme. The reaction was incubated at room temperature (RT) for 1 hour. The plate was washed three times with 200 μl TBST buffer. 100 μL of Blocking buffer were added to every well and the plate was incubated at RT for 10 minutes with shaking. Supernatant was removed and 100 μl of Primary antibody were added per well. The plate was incubated at RT for 1 hour with slow shaking. The plate was washed three times with 200 μl TBST buffer. 100 μL of Blocking buffer were added to every well and the plate was incubated at RT for 10 minutes with shaking. 100 μl of Secondary HRP‐labeled antibody were added per well and the plate was incubated at RT for 30 minutes with slow shaking. The plate was washed three times with 200 μl TBST buffer. Finally, 100 μl of substrate mix were added and the luminescence was measurement with integration time of 1 second in Perkin Elmer EnSpire Multimode plate reader.

Row | SMILES | predictive penetration in the CNS (PAMPA‐BBB assay) | Papp (PAMPA‐BBB assay) [×10⁻⁶ cm/s] | activity against EHMT1 (in words) (EHMT1 (GLP))
1 | Cc1cc(N2CCN(Cc3cc(CN4CCCC4)cs3)CC2)nc(N)n1 [E] | CNS+/‐ | 2.2 ± 0.1 | did not inhibit EHMT1
2 | CCN1C[C@H](NC(=O)c2cc3cc(Cl)ccc3[nH]2)[C@@H](OC)C1 [F, 5‐chloro‐N‐((3S,4S)‐1‐ethyl‐4‐methoxypyrrolidin‐3‐yl)‐1H‐indole‐2‐carboxamide] | CNS+ (compounds of high BBB permeation (CNS+): Pe (10^−6 cm ⋅ s^−1) >5.14) | 10.9 ± 0.4 | slight activity against EHMT1 at low doses
3 | Cc1cc(CNC(=O)C(c2ccc(F)cc2)N2CCCCC2)cnc1C (stereo not drawn) [H] | CNS+ (compounds of high BBB permeation (CNS+): Pe (10^−6 cm ⋅ s^−1) >5.14) | 17.4 ± 2.4 | slight activity against EHMT1 at low doses

Reference: PMC9401600 (Chemmedchem, 2022)
